Assay results: PubChem BioAssay AID330 (DTP/NCI, 2004)
“And” between values parts separate entries of the source, which are not always exact repeats. Equal values may be shown once. Toxic doses and inconclusive results are not listed. Peptide text beside a SMILES is read from it.

Tested on: P388 leukemia ip, CD2F1 mice, survival T/C
Test: NCI In Vivo Anticancer Drug Screen. Data for tumor model P388 Leukemia (intraperitoneal) in CD2F1 (CDF1) mice
Details: endpoint: median survival time, higher = longer survival
In short: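 Mice carrying the transplanted tumor received test compound or vehicle. Survival was recorded in each group, and the value is the treated-group measurement divided by that of the vehicle-treated control group.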

[1] = dose: 12.5 mg/kg/injection, schedule: Q01DX009 (ip), vehicle: saline
[2] = dose: 25.0 mg/kg/injection, schedule: Q01DX009 (ip), vehicle: saline
[3] = dose: 100.0 mg/kg/injection, schedule: Q01DX009 (ip), vehicle: saline
[4] = dose: 200.0 mg/kg/injection, schedule: Q01DX009 (ip), vehicle: saline
[5] = dose: 50.0 mg/kg/injection, schedule: Q01DX005 (ip), vehicle: saline with Tween-80
[6] = dose: 100.0 mg/kg/injection, schedule: Q01DX005 (ip), vehicle: saline with Tween-80
[7] = dose: 50.0 mg/kg/injection, schedule: Q01DX005 (ip), vehicle: Klucel (hydroxypropylcellulose) (HPC)
[8] = dose: 100.0 mg/kg/injection, schedule: Q01DX005 (ip), vehicle: Klucel (hydroxypropylcellulose) (HPC)
[9] = dose: 200.0 mg/kg/injection, schedule: Q01DX005 (ip), vehicle: Klucel (hydroxypropylcellulose) (HPC)
[10] = dose: 12.5 mg/kg/injection, schedule: Q01DX009 (ip), vehicle: saline with Tween-80
[11] = dose: 25.0 mg/kg/injection, schedule: Q01DX009 (ip), vehicle: saline with Tween-80
[12] = dose: 50.0 mg/kg/injection, schedule: Q01DX009 (ip), vehicle: saline with Tween-80
[13] = dose: 100.0 mg/kg/injection, schedule: Q01DX009 (ip), vehicle: saline with Tween-80
[14] = dose: 200.0 mg/kg/injection, schedule: Q01DX009 (ip), vehicle: saline with Tween-80
[15] = dose: 200.0 mg/kg/injection, schedule: Q01DX005 (ip), vehicle: saline with Tween-80
[16] = dose: 50.0 mg/kg/injection, schedule: Q01DX009 (ip), vehicle: saline

CCc1cccc(CC)c1N1C(=O)COCC1=O
T/C (dose: 6.25 mg/kg/injection, schedule: Q01DX009 (ip), vehicle: saline): 96 % of control | T/C [1]: 93 % of control | T/C [2]: 92 % of control | T/C [3]: 100 % of control | T/C [4]: 100 % of control

CCCCN(CCCC)CC(O)c1cccc2cc(Cl)ccc12 (stereo not given)
T/C [5]: 104 % of control | T/C [6]: 109 % of control

Cc1ccc(N=Nc2c(-c3cccs3)nn(C(=S)S)c2C(F)(F)F)cc1
T/C [7]: 92 % of control | T/C [8]: 92 % of control | T/C [9]: 87 % of control

COc1cc(C=Nc2ccc(-n3ccnc3C)cc2)ccc1N(CCCl)CCCl
T/C (dose: 5.0 mg/kg/injection, schedule: Q01DX009 (ip), vehicle: Klucel (hydroxypropylcellulose) (HPC)): 170 % of control | T/C (dose: 10.0 mg/kg/injection, schedule: Q01DX009 (ip), vehicle: Klucel (hydroxypropylcellulose) (HPC)): 181 % of control | T/C (dose: 20.0 mg/kg/injection, schedule: Q01DX009 (ip), vehicle: Klucel (hydroxypropylcellulose) (HPC)): 106 % of control

c1cc2c(cc1NC1=NCCO1)CCC2
T/C (dose: 6.25 mg/kg/injection, schedule: Q04DX003 (ip), vehicle: saline with Tween-80): 100 % of control | T/C (dose: 12.5 mg/kg/injection, schedule: Q04DX003 (ip), vehicle: saline with Tween-80): 100 % of control | T/C (dose: 25.0 mg/kg/injection, schedule: Q04DX003 (ip), vehicle: saline with Tween-80): 100 % of control

CCCCCCN1CCN(Cc2ccc(N(CC)CC)cc2)C(=O)C1=O
T/C [7]: 91 % of control | T/C [8]: 100 % of control | T/C [9]: 105 % of control

CC(CCN1CCOCC1)Nc1ccnc2cc(Cl)ccc12 (stereo not given)
T/C (dose: 12.5 mg/kg/injection, schedule: Q01DX005 (ip), vehicle: saline): 98 % of control | T/C (dose: 25.0 mg/kg/injection, schedule: Q01DX005 (ip), vehicle: saline): 102 % of control | T/C (dose: 50.0 mg/kg/injection, schedule: Q01DX005 (ip), vehicle: saline): 107 % of control and 95 % of control

NC(N)=N/N=C/c1ccc(Cl)c(Cl)c1
T/C [10]: 100 % of control | T/C [11]: 95 % of control | T/C [12]: 86 % of control

CC(C)(C)N=C(CCN1CCCCC1)Nc1ccc([N+](=O)[O-])cc1
T/C [12]: 112 % of control | T/C [13]: 110 % of control | T/C [14]: 103 % of control

CCOC(=O)CC(=O)N(CC)CC
T/C [13]: 104 % of control | T/C [14]: 100 % of control | T/C (dose: 400.0 mg/kg/injection, schedule: Q01DX009 (ip), vehicle: saline with Tween-80): 95 % of control

C=CC(C#N)(C=C)C=C
T/C [10]: 104 % of control | T/C [11]: 103 % of control | T/C [12]: 108 % of control

CCCC/C=C(\C#N)SCC
T/C (dose: 37.5 mg/kg/injection, schedule: Q01DX009 (ip), vehicle: saline with Tween-80): 100 % of control and 112 % of control and 118 % of control | T/C (dose: 75.0 mg/kg/injection, schedule: Q01DX009 (ip), vehicle: saline with Tween-80): 105 % of control and 114 % of control and 119 % of control | T/C (dose: 150.0 mg/kg/injection, schedule: Q01DX009 (ip), vehicle: saline with Tween-80): 106 % of control and 123 % of control | T/C (dose: 300.0 mg/kg/injection, schedule: Q01DX009 (ip), vehicle: saline with Tween-80): 104 % of control

O=C(O)C(=O)O.O=C(O)C(=O)O.O=C(O)C(=O)O.[Ir]
T/C (dose: 12.5 mg/kg/injection, schedule: Q04DX003 (ip), vehicle: water): 120 % of control | T/C (dose: 25.0 mg/kg/injection, schedule: Q04DX003 (ip), vehicle: water): 120 % of control | T/C (dose: 50.0 mg/kg/injection, schedule: Q04DX003 (ip), vehicle: water): 93 % of control | T/C (dose: 100.0 mg/kg/injection, schedule: Q04DX003 (ip), vehicle: water): 98 % of control

NC(=S)N1CCCC1
T/C [11]: 95 % of control | T/C [12]: 93 % of control | T/C [13]: 98 % of control | T/C [14]: 89 % of control

CC(O)C(N)C(=O)NC(Cc1ccccc1)C(N)=O (stereo not drawn) (H-Thr-Phe-NH2; configuration not given here)
T/C [5]: 101 % of control | T/C [6]: 100 % of control | T/C [15]: 103 % of control

CCCCCCCCCc1cc(CN2CCCCC2)c(O)c(CN2CCCCC2)c1
T/C [1]: 112 % of control | T/C [2]: 108 % of control | T/C [16]: 102 % of control

Nc1nc(SCc2ccccc2Cl)c2[nH]cnc2n1
T/C (dose: 100.0 mg/kg/injection, schedule: Q04DX003 (ip), vehicle: saline with Tween-80): 100 % of control

O=[N+]([O-])c1cccc2c(S(=O)(=O)O)cccc12
T/C (dose: 50.0 mg/kg/injection, schedule: Q04DX003 (ip), vehicle: saline): 90 % of control | T/C (dose: 100.0 mg/kg/injection, schedule: Q04DX003 (ip), vehicle: saline): 100 % of control | T/C (dose: 200.0 mg/kg/injection, schedule: Q04DX003 (ip), vehicle: saline): 90 % of control

COc1ccc2c(c1O)-c1cccc3c1[C@@H](C2)N(CCCl)CC3
T/C (dose: 1.0 mg/kg/injection, schedule: Q01DX009 (ip), vehicle: Klucel (hydroxypropylcellulose) (HPC)): 101 % of control and 105 % of control | T/C (dose: 2.0 mg/kg/injection, schedule: Q01DX009 (ip), vehicle: Klucel (hydroxypropylcellulose) (HPC)): 99 % of control and 101 % of control | T/C (dose: 4.0 mg/kg/injection, schedule: Q01DX009 (ip), vehicle: Klucel (hydroxypropylcellulose) (HPC)): 106 % of control and 113 % of control | T/C (dose: 4.0 mg/kg/injection, schedule: Q01DX009 (ip), vehicle: saline): 151 % of control | T/C (dose: 6.25 mg/kg/injection, schedule: Q04DX003 (ip), vehicle: other): 104 % of control and 118 % of control | T/C (dose: 8.0 mg/kg/injection, schedule: Q01DX009 (ip), vehicle: Klucel (hydroxypropylcellulose) (HPC)): 106 % of control | T/C (dose: 8.0 mg/kg/injection, schedule: Q01DX009 (ip), vehicle: saline): 114 % of control and 120 % of control | T/C (dose: 12.5 mg/kg/injection, schedule: Q04DX003 (ip), vehicle: other): 90 % of control | T/C (dose: 25.0 mg/kg/injection, schedule: Q04DX003 (ip), vehicle: other): 116 % of control

Cc1ccc(F)cc1NC(=S)NN
T/C (dose: 7.5 mg/kg/injection, schedule: Q01DX005 (ip), vehicle: Klucel (hydroxypropylcellulose) (HPC)): 100 % of control | T/C (dose: 15.0 mg/kg/injection, schedule: Q01DX005 (ip), vehicle: Klucel (hydroxypropylcellulose) (HPC)): 99 % of control | T/C (dose: 30.0 mg/kg/injection, schedule: Q01DX005 (ip), vehicle: Klucel (hydroxypropylcellulose) (HPC)): 91 % of control

COc1ccc(-c2coc3c4c(c(CC=C(C)C)c(OC)c3c2=O)OC(C)(C)C=C4)cc1OC
T/C (dose: 12.5 mg/kg/injection, schedule: Q01DX005 (ip), vehicle: saline with Tween-80): 102 % of control | T/C (dose: 25.0 mg/kg/injection, schedule: Q01DX005 (ip), vehicle: saline with Tween-80): 100 % of control | T/C [5]: 98 % of control and 91 % of control

COc1cc(OC)cc(C2(C(=O)[C@@H]3OC(C)(C)OC3C)SCCCS2)c1 (stereo not given in full)
T/C (dose: 100.0 mg/kg/injection, schedule: Q01DX001 (ip), vehicle: Klucel (hydroxypropylcellulose) (HPC)): 98 % of control | T/C (dose: 200.0 mg/kg/injection, schedule: Q01DX001 (ip), vehicle: Klucel (hydroxypropylcellulose) (HPC)): 94 % of control | T/C (dose: 400.0 mg/kg/injection, schedule: Q01DX001 (ip), vehicle: Klucel (hydroxypropylcellulose) (HPC)): 90 % of control

[CH3][Ge]([CH3])[c]1ccccc1
T/C [16]: 101 % of control | T/C [3]: 95 % of control

O=[N+]([O-])c1ccc(-c2nnn(C3CC3)c2N2CCCCC2)cc1
T/C (dose: 100.0 mg/kg/injection, schedule: Q04DX002 (ip), vehicle: Klucel (hydroxypropylcellulose) (HPC)): 100 % of control | T/C (dose: 200.0 mg/kg/injection, schedule: Q04DX002 (ip), vehicle: Klucel (hydroxypropylcellulose) (HPC)): 96 % of control | T/C (dose: 400.0 mg/kg/injection, schedule: Q04DX002 (ip), vehicle: Klucel (hydroxypropylcellulose) (HPC)): 101 % of control

CC/C(=N\NC(=S)SC)c1ccccc1
T/C [12]: 91 % of control | T/C [13]: 100 % of control | T/C [14]: 97 % of control

CCC(c1ccc(O)cc1)c1cc2c(cc1OCC(=O)OC)OCO2 (stereo not given)
T/C [5]: 97 % of control | T/C [6]: 93 % of control | T/C [15]: 88 % of control

Cc1cccc(-c2nc(=S)nc(N)s2)c1
T/C (dose: 100.0 mg/kg/injection, schedule: Q01DX001 (ip), vehicle: saline with Tween-80): 95 % of control | T/C (dose: 200.0 mg/kg/injection, schedule: Q01DX001 (ip), vehicle: saline with Tween-80): 93 % of control

CCCCC(C)C(=O)/C=C/c1ccc(Cl)c(Cl)c1 (stereo not given)
T/C [12]: 105 % of control | T/C [13]: 100 % of control | T/C [14]: 106 % of control

Cc1ccc(S(=O)(=O)NC(=O)OC23COCN2COC3)cc1
T/C [12]: 117 % of control | T/C [13]: 122 % of control

CC(=O)OC(CCC1CO1)OC(C)=O (stereo not given)
T/C [16]: 100 % of control | T/C [3]: 98 % of control | T/C [4]: 100 % of control
